From USRE42014E1, “Pharmaceutical compositions” (Novartis AG, priority 1996, dated 2010)

How the values were obtained:
[1] = per 100 ml of a 10% fat emulsion
Procedure: (§1) The solubilization efficacy was determined by filtering the drug loaded fat emulsion through a 0.2 micron Nuclepore filter. Drug compound which is not solubilized was held back by the filter and determined gravimetrically and/or by HPLC measurements.

[2] = Solubilization of active agent in fat emulsions: filtration through 0.2 micron Nuclepore filter, retained drug determined gravimetrically and/or by HPLC
Procedure: as §1
Further sodium oleate was used, instead of POPG.Na.
Propylene glycol was then used to replace a part of the ethanol content.

## C/C=C/C[C@@H](C)C(=O)[C@H]1C(=O)N[C@@H](C(C)C)C(=O)N(C)CC(=O)N(C)[C@@H](CC(C)C)C(=O)N[C@@H](C(C)C)C(=O)N(C)[C@@H](CC(C)C)C(=O)N[C@@H](C)C(=O)N[C@H](C)C(=O)N(C)[C@@H](CC(C)C)C(=O)N(C)[C@@H](CC(C)C)C(=O)N(C)[C@@H](C(C)C)C(=O)N1C [PSC 833, [3′-desoxy-3′-oxo-MeBmt]^1-[Val]^2-Ciclosporin]
[1]
  PSC 833 solubilized by 100 ml of a 10% fat emulsion: up to 2 gram
[2]; plain PSC 833 solution in ethanol injected into a fat emulsion, after 30 minutes, no stabiliser
  PSC 833 solubilized: 87%
[2]; with POPG.Na or sodium oleate, after 5 minutes, determined by HPLC
  PSC 833 retained on the filter: less than 0.1%
